From ChEMBL document CHEMBL1201862, “PubChem BioAssay data set” (2004)
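Compound exposure: 48 hours, 5 concentrations, 96-well plates. Abbreviation: GI50, concentration required for 50% inhibition of growth.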 Calls of active or inactive are those of the source. Rule as the data show it: active = GI50 up to about 1.1 µM and inactive = higher. Where a SMILES comes first, the peptide text is derived from it. The star is where a group is joined. Cbz = O=C(OCc1ccccc1)*; OBn = c1ccc(CO*)cc1

Columns and labels:
Experiment in all cases: growth of human tumour cells (NCI), 48 h
CAKI-1 = tested on: CAKI-1
COLO 205 = tested on: COLO 205
DU-145 = tested on: DU-145
EKVX = tested on: EKVX
HCC 2998 = tested on: HCC 2998
HCT-15 = tested on: HCT-15
HOP-62 = tested on: HOP-62
IGROV-1 = tested on: IGROV-1
K562 = tested on: K562
MDA-MB-231 = tested on: MDA-MB-231
Malme-3M = tested on: Malme-3M
NCI-H460 = tested on: NCI-H460
PC-3 = tested on: PC-3
SK-MEL-5 = tested on: SK-MEL-5
SW-620 = tested on: SW-620
T47D = tested on: T47D
U-251 = tested on: U-251
BT-549 = tested on: BT-549
SK-MEL-2 = tested on: SK-MEL-2
MOLT-4 = tested on: MOLT-4

| Compound | GI50 (CAKI-1) | GI50 (COLO 205) | GI50 (DU-145) | GI50 (EKVX) | GI50 (HCC 2998) | GI50 (HCT-15) | GI50 (HOP-62) | GI50 (IGROV-1) | GI50 (K562) | GI50 (MDA-MB-231) | GI50 (Malme-3M) | GI50 (NCI-H460) | GI50 (PC-3) | GI50 (SK-MEL-5) | GI50 (SW-620) | GI50 (T47D) | GI50 (U-251) | GI50 (BT-549) | GI50 (SK-MEL-2) | GI50 (MOLT-4) |
| --- | --- | --- | --- | --- | --- | --- | --- | --- | --- | --- | --- | --- | --- | --- | --- | --- | --- | --- | --- | --- |
| CC1(C)N=c2c(ncn2CCCO)=C(C(N)=O)N1 | > 100 µM (inactive) | > 100 µM (inactive) | > 100 µM (inactive) | > 100 µM (inactive) | > 100 µM (inactive) | > 100 µM | > 100 µM (inactive) | > 100 µM (inactive) | > 100 µM (inactive) | > 100 µM (inactive) | > 100 µM (inactive) | > 100 µM (inactive) | > 100 µM (inactive) | > 100 µM (inactive) | > 100 µM (inactive) | > 100 µM (inactive) | > 100 µM (inactive) |  |  |  |
| NC(=S)C1=C(N)Oc2c(c(=O)oc3ccccc23)C1c1ccc(Br)cc1 (configuration not stated) | > 100 µM (inactive) | > 100 µM (inactive) | > 100 µM (inactive) | > 100 µM (inactive) | > 100 µM (inactive) | > 100 µM | > 100 µM (inactive) | > 100 µM (inactive) | 42.1 µM (inactive) | > 100 µM (inactive) | > 100 µM (inactive) | > 100 µM (inactive) | > 100 µM (inactive) | > 100 µM (inactive) | > 100 µM (inactive) |  | > 100 µM (inactive) | > 100 µM (inactive) | > 100 µM (inactive) |  |
| COc1cc(C(c2c(O)c3ccccc3oc2=O)c2c(O)c3ccccc3oc2=O)cc(Br)c1O | 15.7 µM (inactive) | 18.2 µM (inactive) | 17.4 µM (inactive) | 18.8 µM (inactive) |  | 17.7 µM | 18.6 µM (inactive) | 15.6 µM (inactive) | 30.3 µM (inactive) | 17.8 µM (inactive) | 16.8 µM (inactive) |  | 19.1 µM (inactive) | 16.3 µM (inactive) | 20.6 µM (inactive) | 22.8 µM (inactive) | 16.8 µM (inactive) | 17 µM (inactive) | 23.8 µM (inactive) | 20.1 µM (inactive) |
| COc1ccc(C(=O)/C=C/c2ccc(OCCCCCCCCCCOc3ccc(/C=C/C(=O)c4ccc(OC)cc4)cc3)cc2)cc1 | > 100 µM (inactive) | > 100 µM (inactive) | > 100 µM (inactive) | > 100 µM (inactive) | > 100 µM (inactive) | > 100 µM | > 100 µM (inactive) | > 100 µM (inactive) | > 100 µM (inactive) | > 100 µM (inactive) |  | > 100 µM (inactive) | > 100 µM (inactive) | > 100 µM (inactive) | > 100 µM (inactive) | > 100 µM (inactive) | > 100 µM (inactive) |  | > 100 µM (inactive) | > 100 µM (inactive) |
| O=[N+]([O-])c1ccc2oc(=N/c3ccccc3)/c(=N\c3ccccc3)[nH]c2c1 | 61.1 µM (inactive) | > 100 µM (inactive) | > 100 µM (inactive) | 70.5 µM (inactive) | 83.6 µM (inactive) | > 100 µM | 35 µM (inactive) | 32.1 µM (inactive) | > 100 µM (inactive) | 7.87 µM (inactive) | 87.1 µM (inactive) | 29.6 µM (inactive) | 65.3 µM (inactive) | 75.9 µM (inactive) | > 100 µM (inactive) | > 100 µM (inactive) | 40.9 µM (inactive) |  | 36.7 µM (inactive) | > 100 µM (inactive) |
| CN1N(c2ccccc2)C(=O)C2=NC=C(C#N)C(=N)C21C (configuration not stated) | > 100 µM (inactive) | > 100 µM (inactive) | > 100 µM (inactive) | > 100 µM (inactive) | > 100 µM (inactive) | > 100 µM |  | > 100 µM (inactive) | > 100 µM (inactive) | > 100 µM (inactive) | > 100 µM (inactive) | > 100 µM (inactive) | > 100 µM (inactive) | > 100 µM (inactive) | > 100 µM (inactive) |  | > 100 µM (inactive) | > 100 µM (inactive) | > 100 µM (inactive) | > 100 µM (inactive) |
| C=CCn1c(-c2ccc(/N=N/Nc3ccc(-c4n[nH]c(=S)n4CC=C)cc3)cc2)n[nH]c1=S | 4.57 µM (inactive) | 2.94 µM (inactive) | 3.65 µM (inactive) | 5.55 µM (inactive) |  | 4.59 µM | 3.4 µM (inactive) | 3.34 µM (inactive) | 2.12 µM (inactive) | 22 µM (inactive) | 3.57 µM (inactive) |  | 3.17 µM (inactive) | 1.53 µM (inactive) | 7.13 µM (inactive) | 1.11 µM (active) | 4.36 µM (inactive) | 2.3 µM (inactive) | 2.67 µM (inactive) | 2.01 µM (inactive) |
| COc1ccc(CNC(=O)[C@H](Cc2ccc(O)cn2)NC(C)=O)cc1 | > 100 µM (inactive) | > 100 µM (inactive) | > 100 µM (inactive) | 87.7 µM (inactive) | > 100 µM (inactive) | > 100 µM | > 100 µM (inactive) | > 100 µM (inactive) | > 100 µM (inactive) |  |  | > 100 µM (inactive) | > 100 µM (inactive) | > 100 µM (inactive) | > 100 µM (inactive) | > 100 µM (inactive) | > 100 µM (inactive) | > 100 µM (inactive) | > 100 µM (inactive) | > 100 µM (inactive) |
| CN(C)C1C(O)=C(C(=O)NCN2CCCC2)C(=O)C2(O)C(O)=C3C(=O)c4c(O)cccc4C(C)(O)C3CC12 (configuration not stated) | > 100 µM (inactive) | > 100 µM (inactive) | 62.2 µM (inactive) | > 100 µM (inactive) |  | > 100 µM | > 100 µM (inactive) | > 100 µM (inactive) | 57 µM (inactive) | 29.2 µM (inactive) | 25.6 µM (inactive) |  | > 100 µM (inactive) | > 100 µM (inactive) | > 100 µM (inactive) | > 100 µM (inactive) | 88.9 µM (inactive) | > 100 µM (inactive) | > 100 µM (inactive) | 40 µM (inactive) |
| S=C(/N=c1/sc(Nc2ccccc2)nc2sc3c(c12)CCCC3)Nc1ccccc1 | > 62.5 µM (inactive) | > 62.5 µM (inactive) | > 62.5 µM (inactive) | > 62.5 µM (inactive) | > 62.5 µM (inactive) | > 62.5 µM | > 62.5 µM (inactive) | > 62.5 µM (inactive) | > 62.5 µM (inactive) | > 62.5 µM (inactive) | > 62.5 µM (inactive) | > 62.5 µM (inactive) | > 62.5 µM (inactive) | > 62.5 µM (inactive) | > 62.5 µM (inactive) |  | > 62.5 µM (inactive) | > 62.5 µM (inactive) | > 62.5 µM (inactive) | > 62.5 µM (inactive) |
| FC(F)(F)c1ccc(C2=N/S(c3ccccc3)=N\C(c3ccc(C(F)(F)F)cc3)=N/S(c3ccccc3)=N\2)cc1 (configuration not stated) | > 100 µM (inactive) | > 100 µM (inactive) | > 100 µM (inactive) | > 100 µM (inactive) | > 100 µM (inactive) | > 100 µM |  | > 100 µM (inactive) | > 100 µM (inactive) | > 100 µM (inactive) | > 100 µM (inactive) | > 100 µM (inactive) | > 100 µM (inactive) | > 100 µM (inactive) | > 100 µM (inactive) |  | > 100 µM (inactive) | > 100 µM (inactive) | > 100 µM (inactive) | > 100 µM (inactive) |
| CCN(CCCl)c1cc(CN(C)C)cc(NC(=O)c2cc(C(=O)Nc3cc(CN(C)C)cc(N(CC)CCCl)c3)n(C)n2)c1 | 0.557 µM (active) | 0.721 µM (active) | 0.389 µM (active) |  | 0.755 µM (active) | 2.31 µM | 0.121 µM (active) | 0.136 µM (active) | 0.124 µM (active) | 1.53 µM (inactive) | 1.49 µM (inactive) | < 0.01 µM (active) | 0.164 µM (active) | 1.09 µM (active) | 0.0962 µM (active) | 0.508 µM (active) | 0.0923 µM (active) |  | 1.55 µM (inactive) | < 0.01 µM (active) |
| Nc1nc2cc3nc(N)c(N)nc3cc2nc1N | > 100 µM (inactive) | > 100 µM (inactive) | > 100 µM (inactive) | > 100 µM (inactive) | > 100 µM (inactive) | > 100 µM |  | > 100 µM (inactive) | > 10 µM (inactive) | > 100 µM (inactive) | > 100 µM (inactive) | > 100 µM (inactive) | > 100 µM (inactive) | > 100 µM (inactive) | > 100 µM (inactive) |  | > 100 µM (inactive) | > 100 µM (inactive) | > 100 µM (inactive) | 92.9 µM (inactive) |
| COCC(C#N)NC1CC(OC2CC(O)(C(=O)CO)Cc3c(O)c4c(c(O)c32)C(=O)c2c(OC)cccc2C4=O)OC(C)C1O (configuration not stated) | 0.0388 µM (active) | 0.0483 µM (active) | 0.0412 µM (active) | 0.5 µM (active) | 0.145 µM (active) | 0.802 µM | 0.0287 µM (active) | 0.0404 µM (active) | 0.0415 µM (active) | 0.112 µM (active) | 0.0344 µM (active) | < 0.01 µM (active) | 0.0942 µM (active) | 0.0303 µM (active) | 0.033 µM (active) |  | 0.0286 µM (active) | 0.138 µM (active) | 0.136 µM (active) | < 0.0137 µM (active) |
| COC(=O)C(Cc1ccc(O)cc1)NC(=O)C(CC(=O)OCc1ccccc1)NC(=O)OCc1ccccc1 (configuration not stated) (Cbz-Asp(OBn)-Tyr-OMe; configuration not given here) |  | 19.1 µM (inactive) |  | 23.8 µM (inactive) | 17.6 µM (inactive) | 18.3 µM | 19.7 µM (inactive) | 17.3 µM (inactive) | 42.5 µM (inactive) | 18.7 µM (inactive) | 41.1 µM (inactive) | 12.4 µM (inactive) | 17.7 µM (inactive) | 18.2 µM (inactive) | 22.4 µM (inactive) | 19.5 µM (inactive) | 20.3 µM (inactive) | 22.6 µM (inactive) | 19.2 µM (inactive) | 24.7 µM (inactive) |
